Measurements from patent US10889553B2, “Asymmetric triazole benzamide derivatives and the compositions and methods of treatment regarding the same” (NysnoBio Ireland DAC, priority 2017, dated 2021).

How the values were obtained:
Assay in all cases: Selectivity screen, radioligand displacement
Assay type in all cases: binding
[1] = target: 5-HT1A (h) (Homo sapiens, UniProt P08908); settings: read-out: % Inhib 5-HT1A (h)
Description: (§1) If the % inhibition is less than 50%, the test compounds is consider to have no effect.

[2] = target: 5-HT1B (Rattus norvegicus, UniProt P28564); settings: read-out: % Inhib 5-HT1B
Description: as §1

[3] = target: 5-HT2A (h) (Homo sapiens, UniProt P28223); settings: read-out: % Inhib 5-HT2A (h)
Description: as §1

[4] = target: 5-HT2B (h) (Homo sapiens, UniProt P41595); settings: read-out: % Inhib 5-HT2B (h)
Description: as §1

[5] = target: 5-HT3 (h) (Homo sapiens, UniProt P46098); settings: read-out: % Inhib 5-HT3 (h)
Description: as §1

[6] = target: CB1 (h) (Homo sapiens, UniProt P21554); settings: read-out: % Inhib CB1 (h)
Description: as §1

[7] = target: CCK1 (CCKA) (h) (Homo sapiens, UniProt P32238); settings: read-out: % Inhib CCK1 (CCKA) (h)
Description: as §1

[8] = target: COX1(h) (Homo sapiens, UniProt P23219); settings: read-out: % Inhib COX1(h)
Description: as §1

[9] = target: COX2(h) (Homo sapiens, UniProt P35354); settings: read-out: % Inhib COX2(h)
Description: as §1

[10] = target: D1 (h) (Homo sapiens, UniProt P21728)
Description: as §1

[11] = target: D2S (h) (Homo sapiens, UniProt P14416); settings: read-out: % Inhib D2S (h)
Description: as §1

[12] = target: ETA (h) (Homo sapiens, UniProt P25101); settings: read-out: % Inhib ETA (h)
Description: as §1

[13] = target: H2 (h) (Homo sapiens, UniProt P25021); settings: read-out: % Inhib H2 (h)
Description: as §1

[14] = tested on: KV channel; settings: Compound 42 at 10 μM
Description: as §1

[15] = target: Lck kinase (h) (Homo sapiens, UniProt P06239); settings: read-out: % Inhib Lck kinase (h)
Description: as §1

[16] = target: M1 (h) (Homo sapiens, UniProt P11229)
Description: as §1

[17] = target: M2 (h) (Homo sapiens, UniProt P08172); settings: read-out: % Inhib M2 (h)
Description: as §1

[18] = target: M3 (h) (Homo sapiens, UniProt P20309); settings: read-out: % Inhib M3 (h)
Description: as §1

[19] = target: MAO-A (Rattus norvegicus, UniProt P21396); settings: read-out: % Inhib MAO-A
Description: as §1

[20] = target: N neuronal alpha 4beta 2 (h) (Homo sapiens, UniProt P17787+P43681); settings: read-out: % Inhib N neuronal alpha 4beta 2 (h)
Description: as §1

[21] = tested on: NA+ Channel (Site2); settings: Compound 42 at 10 μM
Description: as §1

[22] = target: PDE3A (h) (Homo sapiens, UniProt Q14432); settings: read-out: % Inhib PDE3A (h)
Description: as §1

[23] = target: PDE4D2 (h) (Homo sapiens, UniProt Q08499); settings: read-out: % Inhib PDE4D2 (h)
Description: as §1

[24] = target: alpha 1A (h) (Homo sapiens, UniProt P35348); settings: read-out: % Inhib alpha 1A (h)
Description: as §1

[25] = target: alpha 2A (h) (Homo sapiens, UniProt P08913); settings: read-out: % Inhib alpha 2A (h)
Description: as §1

[26] = target: beta 1 (h) (Homo sapiens, UniProt P08588); settings: read-out: % Inhib beta 1 (h)
Description: as §1

[27] = target: delta (DOP) (h) (Homo sapiens, UniProt P41143); settings: read-out: % Inhib delta (DOP) (h)
Description: as §1

[28] = target: dopamine transporter (h) (Homo sapiens, UniProt Q01959); settings: read-out: % Inhib dopamine transporter (h)
Description: as §1

[29] = target: hERG potassium channel (Homo sapiens, UniProt Q12809); settings: read-out: % Inhib Potassium Channel hERG (human)
Description: as §1

[30] = target: mu (MOP) (h) (Homo sapiens, UniProt P35372); settings: read-out: % Inhib mu (MOP) (h)
Description: as §1

[31] = target: norepinephrine transporter (h) (Homo sapiens, UniProt P23975); settings: read-out: % Inhib norepinephrine transporter (h)
Description: as §1

Chain of D1 (h) (P21728 whole entry): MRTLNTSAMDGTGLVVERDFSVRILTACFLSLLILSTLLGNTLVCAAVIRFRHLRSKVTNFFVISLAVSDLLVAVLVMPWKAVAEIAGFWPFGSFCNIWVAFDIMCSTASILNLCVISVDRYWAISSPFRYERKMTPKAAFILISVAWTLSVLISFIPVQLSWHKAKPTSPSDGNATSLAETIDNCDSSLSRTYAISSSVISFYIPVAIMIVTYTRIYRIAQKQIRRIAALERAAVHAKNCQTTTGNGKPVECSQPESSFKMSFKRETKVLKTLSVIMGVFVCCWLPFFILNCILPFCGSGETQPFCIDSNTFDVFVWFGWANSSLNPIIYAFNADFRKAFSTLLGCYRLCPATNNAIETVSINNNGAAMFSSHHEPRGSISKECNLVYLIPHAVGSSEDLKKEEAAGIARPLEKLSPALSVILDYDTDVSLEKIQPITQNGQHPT
Chain of norepinephrine transporter (h) (P23975 whole entry): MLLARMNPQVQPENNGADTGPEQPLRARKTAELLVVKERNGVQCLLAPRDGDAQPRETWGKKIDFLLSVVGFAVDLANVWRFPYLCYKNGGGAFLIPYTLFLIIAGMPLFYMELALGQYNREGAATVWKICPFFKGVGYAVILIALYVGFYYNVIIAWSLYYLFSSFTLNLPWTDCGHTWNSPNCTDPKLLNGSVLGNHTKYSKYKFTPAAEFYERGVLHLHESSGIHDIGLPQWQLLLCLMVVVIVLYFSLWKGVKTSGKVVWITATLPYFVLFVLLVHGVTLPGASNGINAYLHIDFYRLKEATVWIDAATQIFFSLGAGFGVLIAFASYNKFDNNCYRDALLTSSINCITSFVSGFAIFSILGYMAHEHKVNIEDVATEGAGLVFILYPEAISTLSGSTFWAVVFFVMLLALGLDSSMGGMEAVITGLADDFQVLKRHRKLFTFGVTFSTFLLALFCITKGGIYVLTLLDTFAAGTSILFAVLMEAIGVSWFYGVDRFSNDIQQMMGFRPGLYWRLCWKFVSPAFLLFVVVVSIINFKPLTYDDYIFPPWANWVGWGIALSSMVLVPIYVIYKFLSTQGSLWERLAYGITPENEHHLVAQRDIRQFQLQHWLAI
Chain of COX1(h) (P23219 24-599): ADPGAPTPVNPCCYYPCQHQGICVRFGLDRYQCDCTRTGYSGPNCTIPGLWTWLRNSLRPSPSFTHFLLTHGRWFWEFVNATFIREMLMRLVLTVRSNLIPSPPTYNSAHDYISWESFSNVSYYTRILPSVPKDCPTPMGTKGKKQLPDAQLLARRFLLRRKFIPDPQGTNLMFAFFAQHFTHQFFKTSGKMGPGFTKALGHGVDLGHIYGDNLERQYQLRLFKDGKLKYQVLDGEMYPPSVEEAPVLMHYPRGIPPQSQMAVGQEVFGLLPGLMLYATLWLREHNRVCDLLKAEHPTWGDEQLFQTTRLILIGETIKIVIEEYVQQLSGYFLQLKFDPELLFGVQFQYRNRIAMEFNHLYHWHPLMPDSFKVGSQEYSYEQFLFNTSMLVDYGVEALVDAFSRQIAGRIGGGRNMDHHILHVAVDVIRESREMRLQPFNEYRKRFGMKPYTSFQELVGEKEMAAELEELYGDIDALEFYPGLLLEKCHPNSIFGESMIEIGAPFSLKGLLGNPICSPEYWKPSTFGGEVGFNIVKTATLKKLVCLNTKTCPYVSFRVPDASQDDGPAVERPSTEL
Chain of alpha 1A (h) (P35348 whole entry): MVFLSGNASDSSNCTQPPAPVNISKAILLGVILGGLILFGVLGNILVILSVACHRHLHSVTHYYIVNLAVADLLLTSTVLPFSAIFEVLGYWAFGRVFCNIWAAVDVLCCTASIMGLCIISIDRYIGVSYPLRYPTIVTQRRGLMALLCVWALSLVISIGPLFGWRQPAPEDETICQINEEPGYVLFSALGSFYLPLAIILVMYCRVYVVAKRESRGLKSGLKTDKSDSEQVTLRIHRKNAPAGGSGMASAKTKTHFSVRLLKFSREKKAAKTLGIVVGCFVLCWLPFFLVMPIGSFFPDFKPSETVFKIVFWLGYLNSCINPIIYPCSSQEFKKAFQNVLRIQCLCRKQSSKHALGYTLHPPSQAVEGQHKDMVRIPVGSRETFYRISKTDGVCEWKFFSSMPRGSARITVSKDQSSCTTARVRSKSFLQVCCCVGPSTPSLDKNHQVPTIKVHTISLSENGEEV
Chain of PDE3A (h) (Q14432 whole entry): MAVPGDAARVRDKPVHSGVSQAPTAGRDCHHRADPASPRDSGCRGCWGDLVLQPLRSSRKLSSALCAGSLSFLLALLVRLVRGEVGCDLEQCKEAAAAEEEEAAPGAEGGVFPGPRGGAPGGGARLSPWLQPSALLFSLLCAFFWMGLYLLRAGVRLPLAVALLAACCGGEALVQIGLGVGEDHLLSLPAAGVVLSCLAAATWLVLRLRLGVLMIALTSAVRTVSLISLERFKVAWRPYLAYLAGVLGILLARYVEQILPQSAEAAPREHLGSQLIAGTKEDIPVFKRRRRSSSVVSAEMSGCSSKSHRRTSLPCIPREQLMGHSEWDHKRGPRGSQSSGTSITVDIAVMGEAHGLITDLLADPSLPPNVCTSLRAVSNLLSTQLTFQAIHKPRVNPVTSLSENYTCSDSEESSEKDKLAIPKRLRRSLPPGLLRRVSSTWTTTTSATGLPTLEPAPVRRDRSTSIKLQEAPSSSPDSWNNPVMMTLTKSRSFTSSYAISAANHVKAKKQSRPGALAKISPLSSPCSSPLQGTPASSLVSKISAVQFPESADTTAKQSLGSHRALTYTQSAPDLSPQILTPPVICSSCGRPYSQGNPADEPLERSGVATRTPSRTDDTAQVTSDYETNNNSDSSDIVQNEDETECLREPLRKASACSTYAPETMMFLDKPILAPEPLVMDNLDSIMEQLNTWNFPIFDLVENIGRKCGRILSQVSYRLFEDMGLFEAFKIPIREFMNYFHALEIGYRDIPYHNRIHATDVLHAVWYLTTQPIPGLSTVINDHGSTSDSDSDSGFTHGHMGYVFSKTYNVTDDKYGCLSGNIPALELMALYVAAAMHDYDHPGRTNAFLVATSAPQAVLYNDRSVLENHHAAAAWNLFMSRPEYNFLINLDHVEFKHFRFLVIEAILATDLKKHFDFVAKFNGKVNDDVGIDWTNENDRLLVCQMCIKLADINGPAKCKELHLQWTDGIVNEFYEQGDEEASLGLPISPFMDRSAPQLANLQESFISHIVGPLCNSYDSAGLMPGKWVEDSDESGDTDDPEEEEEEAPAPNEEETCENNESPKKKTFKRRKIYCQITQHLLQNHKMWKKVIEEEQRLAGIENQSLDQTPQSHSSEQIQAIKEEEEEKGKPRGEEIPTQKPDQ
Chain of MAO-A (P21396 whole entry): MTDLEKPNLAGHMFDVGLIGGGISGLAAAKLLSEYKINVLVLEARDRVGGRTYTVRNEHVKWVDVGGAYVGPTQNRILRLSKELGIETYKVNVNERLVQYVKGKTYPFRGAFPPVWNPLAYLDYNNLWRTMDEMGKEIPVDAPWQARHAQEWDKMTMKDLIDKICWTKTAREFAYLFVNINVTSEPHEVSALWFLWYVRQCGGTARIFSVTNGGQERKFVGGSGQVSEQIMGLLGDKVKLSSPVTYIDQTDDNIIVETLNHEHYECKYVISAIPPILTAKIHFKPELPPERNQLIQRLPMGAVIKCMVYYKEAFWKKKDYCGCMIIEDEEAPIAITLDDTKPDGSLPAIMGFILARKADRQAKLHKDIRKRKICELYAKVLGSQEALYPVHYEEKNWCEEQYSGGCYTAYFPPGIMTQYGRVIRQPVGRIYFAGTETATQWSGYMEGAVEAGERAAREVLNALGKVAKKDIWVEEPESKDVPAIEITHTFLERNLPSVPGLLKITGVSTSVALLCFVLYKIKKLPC
Chain of delta (DOP) (h) (P41143 whole entry): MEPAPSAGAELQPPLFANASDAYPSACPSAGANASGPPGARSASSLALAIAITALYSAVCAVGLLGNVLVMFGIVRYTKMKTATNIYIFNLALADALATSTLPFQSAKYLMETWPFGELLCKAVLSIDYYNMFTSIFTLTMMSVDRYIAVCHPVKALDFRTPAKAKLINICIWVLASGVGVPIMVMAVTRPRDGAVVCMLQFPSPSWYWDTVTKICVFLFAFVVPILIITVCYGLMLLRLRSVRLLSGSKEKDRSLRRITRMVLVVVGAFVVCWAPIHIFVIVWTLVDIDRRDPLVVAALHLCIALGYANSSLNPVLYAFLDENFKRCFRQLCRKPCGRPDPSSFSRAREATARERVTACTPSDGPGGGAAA
Chain of PDE4D2 (h) (Q08499 303-809): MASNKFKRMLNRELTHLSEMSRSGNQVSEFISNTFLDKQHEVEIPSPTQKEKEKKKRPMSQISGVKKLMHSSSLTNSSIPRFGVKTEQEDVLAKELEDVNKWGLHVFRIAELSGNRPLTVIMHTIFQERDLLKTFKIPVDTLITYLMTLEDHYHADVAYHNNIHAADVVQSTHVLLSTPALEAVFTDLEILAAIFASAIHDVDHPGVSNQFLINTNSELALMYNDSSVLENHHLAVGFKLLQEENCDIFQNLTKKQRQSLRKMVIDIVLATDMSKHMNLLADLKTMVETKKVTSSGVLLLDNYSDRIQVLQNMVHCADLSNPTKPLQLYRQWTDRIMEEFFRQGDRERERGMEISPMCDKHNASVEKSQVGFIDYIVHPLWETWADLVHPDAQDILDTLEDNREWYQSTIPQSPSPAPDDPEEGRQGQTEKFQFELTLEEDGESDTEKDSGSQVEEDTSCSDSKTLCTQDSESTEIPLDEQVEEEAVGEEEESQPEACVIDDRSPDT
Chain of H2 (h) (P25021 whole entry): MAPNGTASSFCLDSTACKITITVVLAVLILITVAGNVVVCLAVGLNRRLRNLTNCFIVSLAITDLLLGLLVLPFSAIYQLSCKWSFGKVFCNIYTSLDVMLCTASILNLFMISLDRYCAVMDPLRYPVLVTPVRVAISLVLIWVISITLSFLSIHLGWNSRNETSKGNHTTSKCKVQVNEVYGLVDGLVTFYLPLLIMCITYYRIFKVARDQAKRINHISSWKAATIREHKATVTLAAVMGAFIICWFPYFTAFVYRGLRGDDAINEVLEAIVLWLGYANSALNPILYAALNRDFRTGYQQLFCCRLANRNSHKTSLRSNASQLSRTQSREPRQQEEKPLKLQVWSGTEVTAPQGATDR

SMILES: Cc1ccccc1C(=O)Nc1nc(NC(=O)c2ccccc2C)n(-c2ccc(OC(F)(F)F)cc2)n1 [Compound 42, N,N′-(1-(4-(trifluoromethoxy)phenyl)-1H-1,2,4-triazole-3,5-diyl)bis(2-methylbenzamide)]
- inhibition at 10 µM [1]: 10%
- inhibition at 10 µM [2]: 1%
- inhibition at 10 µM [3]: 4%
- inhibition at 10 µM [4]: < 1%
- inhibition at 10 µM [5]: < 1%
- inhibition at 10 µM [6]: < 1%
- inhibition at 10 µM [7]: < 1%
- inhibition at 10 µM [8]: 19%
- inhibition at 10 µM [9]: 1%
- inhibition at 10 µM [10]: < 1%
- inhibition at 10 µM [11]: < 1%
- inhibition at 10 µM [12]: < 1%
- inhibition at 10 µM [13]: < 1%
- % Inhib KV channel [14]: 1%
- inhibition at 10 µM [15]: 8%
- inhibition at 10 µM [16]: 4%
- inhibition at 10 µM [17]: < 1%
- inhibition at 10 µM [18]: < 1%
- inhibition at 10 µM [19]: 4%
- inhibition at 10 µM [20]: < 1%
- % Inhib NA+ Channel (Site2) [21]: 43%
- inhibition at 10 µM [22]: 13%
- inhibition at 10 µM [23]: 35%
- inhibition at 10 µM [24]: 16%
- inhibition at 10 µM [25]: < 1%
- inhibition at 10 µM [26]: < 1%
- inhibition at 10 µM [27]: 9%
- inhibition at 10 µM [28]: 13%
- inhibition at 10 µM [29]: 1%
- inhibition at 10 µM [30]: 6%
- inhibition at 10 µM [31]: 1%
